Measured values from patent publication US20160185797A1, “ALKYNYL ALCOHOLS AND METHODS OF USE” (Genentech, Inc., priority 2013, published 2016).

What was measured:
[1] = target: T1, nuclear factor-kappa B (NF-kB)-inducing kinase (NIK) (Homo sapiens, UniProt Q99558); assay: NIK enzyme inhibition assay (Transcreener ADP fluorescence polarization, NIK ADP-FP); type: biochemical
T1 construct: made in house; host or cells: baculovirus-infected insect cells

[2] = system: REL-A (p65) nuclear translocation in HeLa cells; assay: REL-A (p65) nuclear translocation assay in HeLa cells, TNF-α stimulated (classical NF-kB signaling), high content imaging; type: cell-based; conditions: Homo sapiens, HeLa, compound 4.5 h, then 10 ng/mL TNF-α for 30 minutes, read-out: REL-A HeLa Transloc Assay (IC50)
Description: (§1) Several assays were developed to profile the cellular activities of NIK inhibitors.
(§2) (2) A second set of cell assay are used to define the selectivity of NIK inhibitors toward inhibition of classical vs. non-classical NF-kB signaling and rely on quantification of the nuclear translocation of p52 (NF-kB2) and REL-A (p65) using high content cellular imaging. For the p52 (non-classical NF-kB signaling) nuclear translocation assay, HeLa cells are treated with different concentrations of compounds (0.2% DMSO final) in medium containing 10% fetal bovine serum and then stimulated with 100 ng/mL of an anti-lymphotoxin beta receptor antibody (R&D Systems) for 5 hours. In the REL-A nuclear translocation assay, HeLa cells are incubated with compounds (0.2% DMSO final) for 4.5 hours in medium containing 10% fetal bovine serum before stimulating them with 10 ng/mL tumor necrosis factor (TNF)-α (R&D Systems) for 30 minutes. Cells are fixed with 4% paraformaldehyde, permeabilized by adding 0.1% Triton X-100 in phosphate buffered saline, and then are incubated with either 2 ug/mL anti-p52 antibody (Millipore) or 400 ng/mL anti-REL-A (p65) antibody (Santa Cruz Biotechnology). Finally, the cells are incubated with an Alexa488-labeled secondary antibody (Invitrogen) and DRAQ5 DNA stain (Biostatus). Imaging is carried out using an Opera reader (Perkin Elmer) and data are analyzed with the aid of Acapella software (Perkin Elmer). The p52 or REL-Atranslocation into the nucleus is quantified by the ratio of the nuclear to cytoplasmic signal intensity. […] The compounds in listed in Table 1 have the corresponding inhibitory value (IC50 in micromolar) for NIK p52 Translocation Assay as set forth in Table 2.
(§3) The compounds in listed in Table 1 have the corresponding inhibitory values (IC50 in micromolar) for the Translocation Assays as set forth in Table 2.

[3] = system: p52 (NF-kB2) nuclear translocation in HeLa cells; assay: p52 (NF-kB2) nuclear translocation assay in HeLa cells, anti-lymphotoxin beta receptor antibody stimulated (non-classical NF-kB signaling), high content imaging; type: cell-based; conditions: Homo sapiens, 100 ng/mL anti-lymphotoxin beta receptor antibody for 5 hours, read-out: p52 HeLa Transloc Assay (IC50)
Description: as §1, §2, §3

T1 sequence (Q99558 whole entry): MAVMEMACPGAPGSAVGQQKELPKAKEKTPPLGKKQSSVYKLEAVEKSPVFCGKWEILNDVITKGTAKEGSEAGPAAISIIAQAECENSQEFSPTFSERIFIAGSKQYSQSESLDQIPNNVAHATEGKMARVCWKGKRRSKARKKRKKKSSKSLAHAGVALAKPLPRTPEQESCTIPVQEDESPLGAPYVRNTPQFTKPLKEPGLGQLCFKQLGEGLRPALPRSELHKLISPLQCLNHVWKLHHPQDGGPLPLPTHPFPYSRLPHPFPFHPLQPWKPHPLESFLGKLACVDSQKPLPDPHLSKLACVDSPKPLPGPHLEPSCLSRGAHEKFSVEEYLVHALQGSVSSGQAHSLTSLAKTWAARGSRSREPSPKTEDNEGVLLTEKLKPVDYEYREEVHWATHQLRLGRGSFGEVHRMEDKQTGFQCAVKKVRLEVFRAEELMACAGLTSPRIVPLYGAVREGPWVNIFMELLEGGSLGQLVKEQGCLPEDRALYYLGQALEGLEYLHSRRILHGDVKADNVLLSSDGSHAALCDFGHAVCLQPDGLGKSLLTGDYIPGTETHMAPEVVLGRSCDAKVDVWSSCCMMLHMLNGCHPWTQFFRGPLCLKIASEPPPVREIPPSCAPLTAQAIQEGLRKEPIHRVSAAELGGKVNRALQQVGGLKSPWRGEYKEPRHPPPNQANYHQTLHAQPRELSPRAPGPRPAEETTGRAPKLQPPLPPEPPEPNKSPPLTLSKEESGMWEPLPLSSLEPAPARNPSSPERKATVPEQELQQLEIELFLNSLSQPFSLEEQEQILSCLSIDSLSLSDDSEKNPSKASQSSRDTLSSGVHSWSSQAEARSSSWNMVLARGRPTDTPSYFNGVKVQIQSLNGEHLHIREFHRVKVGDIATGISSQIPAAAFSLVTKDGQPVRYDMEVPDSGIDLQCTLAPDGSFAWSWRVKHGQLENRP

Row | SMILES | Ki [1] | IC50 [2] | IC50 [3]
1 | COC(C)(C)CNc1cnc(-c2cccc(C#C[C@]3(O)CCN(C)C3=O)c2)nc1C(N)=O [Example 101, 2-[3-[2-[(3R)-3-hydroxy-1-methyl-2-oxo-pyrrolidin-3-yl]ethynyl]phenyl]-5-[(2-methoxy-2-methyl-propyl)amino]pyrimidine-4-carboxamide] | 0.52 nM | ≥ 20000 nM | 92.6 nM
2 | COCCNc1ccc(-c2cc(C#C[C@]3(O)CCN(C)C3=O)ccc2F)nc1C(N)=O [Example 86, 6-[2-fluoro-5-[2-[(3R)-3-hydroxy-1-methyl-2-oxo-pyrrolidin-3-yl]ethynyl]phenyl]-3-(2-methoxyethylamino) pyridine-2-carboxamide] | 0.1 nM | ≥ 20000 nM | 6.27 nM
3 | C[C@H]1CCN1c1cc(C(N)=O)nc(-c2cccc(C#C[C@]3(O)CCN(C)C3=O)c2)n1 [Example 23, 2-[3-[2-[(3R)-3-hydroxy-1-methyl-2-oxo-pyrrolidin-3-yl]ethynyl]phenyl]-6-[(2S)-2-methylazetidin-1-yl] pyrimidine-4-carboxamide] | 1.48 nM | > 20000 nM | 96.1 nM
4 | CN1CC[C@@](O)(C#Cc2cccc(-c3nc(C(N)=O)cn4c(C(F)(F)F)cnc34)c2)C1=O [Example 113, 8-[3-[2-[(3R)-3-hydroxy-1-methyl-2-oxo-pyrrolidin-3-yl]ethynyl]phenyl]-3-(trifluoromethyl)imidazo [1,2-a]pyrazine-6-carboxamide] | 2.12 nM | ≥ 2000 nM | 212 nM
5 | CN1CC[C@@](O)(C#Cc2cc(-c3nc(C(N)=O)c(N)cc3F)ccc2F)C1=O [Example 116, 3-amino-5-fluoro-6-[4-fluoro-3-[2-[(3R)-3-hydroxy-1-methyl-2-oxo-pyrrolidin-3-yl]ethynyl]phenyl]pyridine-2-carboxamide] | 0.05 nM | 12400 nM | 11.6 nM
6 | COc1cc(C(N)=O)nc(-c2cc(F)cc(C#C[C@]3(O)CCN(C)C3=O)c2)c1 [Example 171, 6-[3-fluoro-5-[2-[(3R)-3-hydroxy-1-methyl-2-oxo-pyrrolidin-3-yl]ethynyl]phenyl]-4-methoxy-pyridine-2-carboxamide] | 0.24 nM | > 2000 nM | 132 nM
7 | Cc1ccnn1-c1cc(C(N)=O)nc(-c2cccc(C#C[C@]3(O)CCN(C)C3=O)c2)c1 [Example 125, 6-[3-[2-[(3R)-3-hydroxy-1-methyl-2-oxo-pyrrolidin-3-yl]ethynyl]phenyl]-4-(5-methylpyrazol-1-yl) pyridine-2-carboxamide] | 1.29 nM | ≥ 2000 nM | 84.2 nM
8 | Cc1ccc(-c2cccc(C#C[C@]3(O)CCN(C)C3=O)c2)nc1C(N)=O [Example 133, 6-[3-[2-[(3R)-3-hydroxy-1-methyl-2-oxo-pyrrolidin-3-yl]ethynyl]phenyl]-3-methyl-pyridine-2-carboxamide] | 0.18 nM | ≥ 2000 nM | 160 nM
9 | CN1CC[C@@](O)(C#Cc2ccc(F)c(-c3ccc(N)c(C(N)=O)n3)c2)C1=O [Example 84, 3-amino-6-[2-fluoro-5-[2-[(3R)-3-hydroxy-1-methyl-2-oxo-pyrrolidin-3-yl]ethynyl]phenyl] pyridine-2-carboxamide] | 0.05 nM | 1000 nM | 14.2 nM
10 | Cc1ccc(-c2cc(C(N)=O)nc(-c3cccc(C#C[C@]4(O)CCN(C)C4=O)c3)n2)cn1 [Example 95, 2-[3-[2-[(3R)-3-hydroxy-1-methyl-2-oxo-pyrrolidin-3-yl]ethynyl]phenyl]-6-(6-methyl-3-pyridyl)pyrimidine-4-carboxamide] | 0.49 nM | ≥ 20000 nM | 55.2 nM
11 | CN1CC[C@@](O)(C#Cc2cccc(-c3nc4c(c(C(N)=O)n3)CCC4)c2)C1=O [Example 38, 2-[3-[2-[(3R)-3-hydroxy-1-methyl-2-oxo-pyrrolidin-3-yl]ethynyl]phenyl]-6,7-dihydro-5H-cyclopenta [d]pyrimidine-4-carboxamide] | 0.19 nM | > 20000 nM | 49.1 nM
12 | CN1CCC[C@@](O)(C#Cc2cccc(-c3nc(C(N)=O)c(N)cc3F)c2)C1=O [Example 131, 3-amino-5-fluoro-6-[3-[2-[(3R)-3-hydroxy-1-methyl-2-oxo-3-piperidyl]ethynyl]phenyl]pyridine-2-carboxamide] | 1.06 nM | ≥ 2000 nM | 142 nM
13 | CN1CC[C@@](O)(C#Cc2cccc(-c3cc(-n4cccn4)cc(C(N)=O)n3)c2)C1=O [Example 52, 6-[3-[2-[(3R)-3-hydroxy-1-methyl-2-oxo-pyrrolidin-3-yl]ethynyl]phenyl]-4-pyrazol-1-yl-pyridine-2-carboxamide] | 0.13 nM | ≥ 20000 nM | 26 nM
14 | CN1CC[C@@](O)(C#Cc2cccc(-c3nc(C(N)=O)c4ccn(C)c4n3)c2)C1=O [Example 39, 2-[3-[2-[(3R)-3-hydroxy-1-methyl-2-oxo-pyrrolidin-3-yl]ethynyl]phenyl]-7-methyl-pyrrolo[2,3-d] pyrimidine-4-carboxamide] | 0.13 nM | 7700 nM | 20.9 nM
15 | Cc1cc(C(N)=O)nc(-c2cccc(C#C[C@]3(O)CCN(C)C3=O)c2)c1 [Example 123, 6-[3-[2-[(3R)-3-hydroxy-1-methyl-2-oxo-pyrrolidin-3-yl]ethynyl]phenyl]-4-methyl-pyridine-2-carboxamide] | 0.09 nM | ≥ 2000 nM | 79.4 nM
16 | Cc1nccn1-c1cc(C(N)=O)nc(-c2cccc(C#C[C@]3(O)CCN(C)C3=O)c2)n1 [Example 141, 2-[3-[2-[(3R)-3-hydroxy-1-methyl-2-oxo-pyrrolidin-3-yl]ethynyl]phenyl]-6-(2-methylimidazol-1-yl) pyrimidine-4-carboxamide] | 0.37 nM | ≥ 20000 nM | 328 nM
17 | CN1CC[C@@](O)(C#Cc2cc(F)cc(-c3nc(C(N)=O)cn4ccnc34)c2)C1=O [Example 161, 8-[3-fluoro-5-[2-[(3R)-3-hydroxy-l-methyl-2-oxo-pyrrolidin-3-yl]ethynyl]phenyl]imidazol [1,2-a]pyrazine-6-carboxamide] | 0.33 nM | > 2000 nM | 445 nM
18 | Cc1nnc([C@](C)(O)C#Cc2cccc(-c3nc(C(N)=O)cc(-c4ccnn4C)n3)c2)o1 [Example 137, 2-[3-[(3R)-3-hydroxy-3-(5-methyl-1,3,4-oxadiazol-2-yl)but-1-ynyl]phenyl]-6-(2-methylpyrazol-3-yl)pyrimidine-4-carboxamide] | 3.68 nM | ≥ 20000 nM | 268 nM
19 | CN1CC[C@@](O)(C#Cc2cccc(-c3nc(C(N)=O)cc(-c4ccn(C)n4)n3)c2)C1=O [Example 68, 2-[3-[2-[(3R)-3-hydroxy-1-methyl-2-oxo-pyrrolidin-3-yl]ethynyl]phenyl]-6-(1-methylpyrazol-3-yl) pyrimidine-4-carboxamide] | 0.53 nM | ≥ 20000 nM | 89.4 nM
20 | CN1CC[C@@](O)(C#Cc2cccc(-c3cc(N4CCCC4=O)cc(C(N)=O)n3)c2)C1=O [Example 174, 6-[3-[2-[(3R)-3-hydroxy-1-methyl-2-oxo-pyrrolidin-3-yl]ethynyl]phenyl]-4-(2-oxopyrrolidin-1-yl)pyridine-2-carboxamide] | 0.53 nM | > 2000 nM | 449 nM
21 | CN1CC[C@@](O)(C#Cc2ccc(F)c(-c3cccc(C(N)=O)n3)c2)C1=O [Example 92, 6-[2-fluoro-5-[2-[(3R)-3-hydroxy-1-methyl-2-oxo-pyrrolidin-3-yl]ethynyl]phenyl]pyridine-2-carboxamide] | 0.39 nM | ≥ 20000 nM | 133 nM
22 | Cc1ccc(-c2cc(C(N)=O)nc(-c3cccc(C#C[C@]4(O)CCN(C)C4=O)c3)c2)cn1 [Example 126, 6-[3-[2-[(3R)-3-hydroxy-1-methyl-2-oxo-pyrrolidin-3-yl]ethynyl]phenyl]-4-(6-methyl-3-pyridyl)pyridine-2-carboxamide] | 0.05 nM | ≥ 2000 nM | 122 nM
23 | COc1ccc2c(C(N)=O)nc(-c3cccc(C#C[C@]4(O)CCN(C)C4=O)c3)nc2c1 [Example 44, 2-(3-[2-[(3R)-3-hydroxy-1-methyl-2-oxopyrrolidin-3-yl]ethynyl]phenyl)-7-methoxyquinazoline-4-carboxamide] | 0.11 nM | > 20000 nM | 17.5 nM
24 | CN1CC[C@@](O)(C#Cc2cccc(-c3nc(C(N)=O)c4cnn(C)c4n3)c2)C1=O [Example 42, 6-(3-[2-[(3R)-3-hydroxy-1-methyl-2-oxopyrrolidin-3-yl]ethynyl]phenyl)-1-methyl-1H-pyrazolo[3,4-d] pyrimidine-4-carboxamide] | 0.1 nM | > 20000 nM | 10.9 nM
